Data: patent US20160160213A1, “METHODS OF TREATING CANCER AND PREVENTING CANCER DRUG RESISTANCE” (Genentech, Inc., priority 2013, published 2016)
Entries after “also recorded” stand apart in the source; their conditions may differ.

Key:
EZH2 = EZH2 (Homo sapiens, UniProt Q15910); conditions: read-out: EZH2 Ki^app; cited from earlier work
H3K27me3 = conditions: cited from earlier work
H3K27me3 in EVSAT DTPs = assay: Histone H3K27me3 Western blot in EVSAT DTPs treated with GDC-0908; assay type: cell-based; conditions: GSK126 0.1, 0.5, 2.5 μM, EPZ-6438 0.05, 0.1, 0.5 μM, GDC-0908 2 μM
Description: GDC-0908 concentration 2 μM for FIG. 21A and FIG. 21B.
(§1) Cell lysates were prepared in Laemmli sample buffer and analyzed by immunoblotting as described previously. Cell lysates were analyzed using commercial antibodies against modifications on H3 (Active Motif and Cell Signaling Technologies).

H3K27me3 in PC9 DTPs = assay: Histone H3K27me3 Western blot in PC9 DTPs treated with erlotinib; assay type: cell-based, human; conditions: GSK126 0.1, 0.5, 2.5 μM, EPZ-6438 0.05, 0.1, 0.5, 1, 1.5 μM, erlotinib 1 μM
Description: FIG. 20A, FIG. 20B, FIG. 20C and FIG. 20D | EZH2 inhibitors (GSK126) disrupt the drug-tolerant state. (A) Increase in histone H3K27me^3 in PC9 DTPs treated with erlotinib is inhibited by EZH2 small molecule inhibitor (GSK126) at 0.1, 0.5, and 2.5 μM as shown by Western blot. (B) nuc-red PC9 cells were treated with DMSO/erlotinib or GSK126/erlotinib at 0.1, 0.5, or 2.5 μM (dark grey bar) or without erlotinib (DMSO/Media or GSK126/Media) (light grey bar) and analyzed IncuCyte™ at day 9 and 3, respectively. (C) nuc-red PC9 cells were treated with DMSO/erlotinib or GSK126/erlotinib at 2.5 μM for 9 days and imaged. (D) nuc-red PC9 cells were treated with DMSO/erlotinib or GSK126/erlotinib at 2.5 μM for 30 days and stained with Giemsa. Erlotinib concentration 1 μM for FIG. 20A, FIG. 20B, FIG. 20C and FIG. 20D.
(D) nuc-red PC9 cells were treated with DMSO/erlotinib or […] at 0.05, 0.1, or 1.0 μM) for 30 days and stained with Giemsa. Erlotinib concentration 1 μM for FIG. 22A, FIG. 22B, FIG. 22C and FIG. 22D.
as §1

PC9 DTP [1] = assay: HDAC biased inhibitors on PC9 DTP with erlotinib, 30 days; assay type: cell-based, human; conditions: G946 50 nM, G877 5 μM, erlotinib 1 μM
Source text: FIG. 17A, FIG. 17B and FIG. 17C | HDAC (1), 2 and 3 are involved in the establishment of drug tolerance. siRNA against HDAC2 and 3 as well as inhibitors that are HDAC1/2 or 3 biased disrupt the drug-tolerant state. (A-B) Effect of siRNA knockdown of essential components of HDAC2 and HDAC3 on PC9 parental (light grey bars: media conditions) or DTP (dark grey: erlotinib condition) cell number using 4 different specific siRNAs per gene. Data are presented along with the data for the non-targeting (NTC) and siTOX controls in similar treatment conditions. (C) Effect of (C1) G946, HDAC1/2 biased inhibitor, and (C2) G877, HDAC3 biased inhibitor. G946 and G877 were tested at concentrations 50 nM and 5 μM, respectively. PC9 cells were treated with (DTP) (DMSO/erlotinib or HDAC inhibitor/erlotinib) (C1 and C2) for 30 days or without erlotinib (parental) (DMSO/Media or HDAC inhibitor/Media) (data not shown). Erlotinib concentration 1 μM.
To further investigate the role of HDACs in the establishment of drug tolerance, siRNA against HDAC2 and 3 as well as inhibitors that are HDAC1/2 or 3 biased were tested for their ability to disrupt the drug-tolerant state.

PC9 DTP [2] = assay: EZH2 inhibitors on PC9 DTP cell growth with erlotinib (IncuCyte, Giemsa); assay type: cell-based, human; conditions: erlotinib 1 μM; GSK126 0.1-2.5 μM; EPZ-6438 0.05-1.5 μM; day 9 and 30 days
Description: (A) Effect of siRNA knockdown of EZH2 on PC9 parental (light grey bars: media conditions) or DTP (dark grey: erlotinib condition) cell number using 8 different specific siRNAs (Dharmacon siGenome (×4) and On-Target Plus (OTP)(×4)) per gene. […] (B) Effect of GSK126 was tested at a concentration 1 μM.

EVSAT DTP = assay: EZH2 inhibitors on EVSAT DTP cell growth with PI3K inhibitor (IncuCyte); assay type: cell-based; conditions: GDC-0908 2 μM; GSK126 0.1, 0.5, 2.5 μM; EPZ-6438 0.05, 0.1, 0.5 μM
PC9 cells = assay: DZNep cell treatment, PC9 parental/DTP cell viability (CyQUANT Direct); assay type: cell-based, human
Description: DZNep was tested at concentrations ranging from 0.625 to 40 μM (A). PC9 cells were treated for 48 hours either with DZNep (DZNep/Media or DZNep/erlotinib) or DMSO control (DMSO/Media or DMSO/erlotinib) before treatment with (DTP) (DMSO/erlotinib or DZNep/erlotinib) or without erlotinib (parental)(DMSO/Media or DZNep/Media) for 72 hours. Cell number was determined after a 48-72 hours recovery phase in media alone. Effect of DZNep at 5 (B) and 0.625 μM (C) on PC9 parental (solid gray bars: media conditions) or DTP (diamond bars: erlotinib condition) cell number.
PC9 cells were seeded in black 96 well clear bottom plates (Coming, catalog #3603) at 1000 cells per well before to be treated with various concentration of 3-deazaneplanocin A (DZNep) from 40 down to 0.625 μM. After 48 hours of DZNep treatment the media was replaced with fresh media alone or in presence of 1 μM erlotinib. After 72 hours of incubation the media +/− erlotinib was then replaced with fresh media to enable recovery of the drug tolerant persisters (DTPs) that survived after the drug treatment. After 3 days recovery phase, final cell viability was measured using CyQUANT Direct cell proliferation assay (Molecular Probes) according to the manufacturer protocol. CyQUANT fluorescent signal was detected using a GE IN Cell Analyzer 2000 (4× objective) and quantified as number of cell per well using an image analysis algorithm developed using GE Developer Tollbox 1.9.1. Screening data were subsequently processed in Microsoft Excel. The entire Epi300 siRNA screen was run on each cell line twice in completely independent conditions.

[3] = tested on: EZH2 levels and trimethylation of lysine 27 on histone H3; conditions: cultured human acute myeloid leukemia, dose-dependent manner (0.2-1 μM); cited from earlier work
SKBR3 cells = assay: TSA on SKBR3 drug tolerant cells (radiotherapy or lapatinib); assay type: cell-based; conditions: SKBR3, 2.5 Gy and 10 Gy, 25 nM TSA
Description: FIG. 16A, FIG. 16B and FIG. 16C | DTPs in a variety of models display increased sensitivity to HDAC inhibitors. (A) SKBR3 treated with 2.5 Gy in media alone or presence of 25 nM of the HDAC inhibitor TSA. (B) SKBR3 treated with 10 Gy in media alone or presence of 25 nM of the HDAC inhibitor TSA. (C) SKBR3 treated with 1 μM Lapatinib in media alone or presence of 25 nM of the HDAC inhibitor TSA.
The role of histone deacetylases was further test in additional models to elucidate their role in drug tolerance. The class I and II HDAC inhibitor TSA was tested in SKBR3 cells in combination with radiotherapy at 2.5 Gy and 10 Gy.

PC9 xenografts = assay: PC9 xenograft tumor study; assay type: in vivo; conditions: nude mice
Description: FIG. 18 | Effect of HDAC Inhibition using TSA (0.5 mg/kg) on erlotinib response in PC9 xenografts.
PC9 cells were cultured in growth media (RPMI 1640, 10% heat-inactivated fetal calf serum, 2 mM L-glutamine) to 80% confluency and then trypsinized, washed once with PBS, and resuspended in either Hank's Balanced Salt Solution (HBSS) or a 1:1 mixture of HBSS with matrigel [growth factor reduced; catalog #356231 (BD Biosciences, West Grove, Pa.)] to a final concentration of 5×10^7 cells/ml. Each xenograft tumor model was established using 5×10^6 cells (100 μL) inoculated subcutaneously (s.c.) in the rear right flank of immunocompromised mice. PC-9 and PC-9-GFP cells were implanted in HBSS with matrigel in nude (nu/nu) mice (Charles River Laboratories, Hollister, Calif.). When tumor volumes reach approximately 100-200 mm^3, mice were separated into groups of animals with similarly sized tumors, and treatment was initiated the day after grouping. Mice were dosed for 5 days a week (QD) oral gavage (PO) with erlotinib (50 mg/kg in 7.5% Captisol for first 4 doses then lowered to 35 mg/kg in 7.5% Captisol) and/or TSA (0.5 mg/kg) with appropriate vehicle control. […]

EZH2, sequence (Q15910 whole entry): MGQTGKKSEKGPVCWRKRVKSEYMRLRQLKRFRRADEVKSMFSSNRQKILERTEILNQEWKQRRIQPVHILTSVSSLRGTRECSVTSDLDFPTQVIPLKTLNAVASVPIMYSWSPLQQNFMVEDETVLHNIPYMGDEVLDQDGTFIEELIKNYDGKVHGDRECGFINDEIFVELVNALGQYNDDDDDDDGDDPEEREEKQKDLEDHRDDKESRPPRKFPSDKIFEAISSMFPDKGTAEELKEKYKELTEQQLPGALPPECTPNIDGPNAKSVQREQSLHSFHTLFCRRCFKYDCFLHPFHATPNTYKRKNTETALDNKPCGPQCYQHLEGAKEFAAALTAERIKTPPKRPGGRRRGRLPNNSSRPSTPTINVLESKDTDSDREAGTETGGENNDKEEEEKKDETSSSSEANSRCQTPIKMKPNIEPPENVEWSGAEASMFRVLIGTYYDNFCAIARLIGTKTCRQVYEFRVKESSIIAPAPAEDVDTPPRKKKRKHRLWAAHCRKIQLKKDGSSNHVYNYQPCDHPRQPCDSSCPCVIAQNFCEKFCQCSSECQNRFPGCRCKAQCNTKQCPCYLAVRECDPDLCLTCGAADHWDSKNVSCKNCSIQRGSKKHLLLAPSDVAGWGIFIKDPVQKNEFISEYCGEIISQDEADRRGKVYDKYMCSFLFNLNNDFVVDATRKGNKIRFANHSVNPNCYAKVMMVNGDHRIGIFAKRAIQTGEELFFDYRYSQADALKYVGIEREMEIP
EZH2, sequence (O75530 whole entry partner): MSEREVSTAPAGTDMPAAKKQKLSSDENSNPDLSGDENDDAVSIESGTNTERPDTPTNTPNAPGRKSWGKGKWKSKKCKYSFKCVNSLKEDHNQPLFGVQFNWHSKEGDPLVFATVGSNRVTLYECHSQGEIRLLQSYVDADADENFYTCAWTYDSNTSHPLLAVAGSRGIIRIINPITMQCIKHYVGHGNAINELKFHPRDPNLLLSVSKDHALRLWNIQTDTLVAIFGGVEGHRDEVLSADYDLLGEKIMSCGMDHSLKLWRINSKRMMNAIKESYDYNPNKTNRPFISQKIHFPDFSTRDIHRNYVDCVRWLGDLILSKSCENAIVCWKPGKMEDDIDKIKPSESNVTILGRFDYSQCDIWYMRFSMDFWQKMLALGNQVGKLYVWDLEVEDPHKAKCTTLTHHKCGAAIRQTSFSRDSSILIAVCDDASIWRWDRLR
EZH2, sequence (Q15022 whole entry partner): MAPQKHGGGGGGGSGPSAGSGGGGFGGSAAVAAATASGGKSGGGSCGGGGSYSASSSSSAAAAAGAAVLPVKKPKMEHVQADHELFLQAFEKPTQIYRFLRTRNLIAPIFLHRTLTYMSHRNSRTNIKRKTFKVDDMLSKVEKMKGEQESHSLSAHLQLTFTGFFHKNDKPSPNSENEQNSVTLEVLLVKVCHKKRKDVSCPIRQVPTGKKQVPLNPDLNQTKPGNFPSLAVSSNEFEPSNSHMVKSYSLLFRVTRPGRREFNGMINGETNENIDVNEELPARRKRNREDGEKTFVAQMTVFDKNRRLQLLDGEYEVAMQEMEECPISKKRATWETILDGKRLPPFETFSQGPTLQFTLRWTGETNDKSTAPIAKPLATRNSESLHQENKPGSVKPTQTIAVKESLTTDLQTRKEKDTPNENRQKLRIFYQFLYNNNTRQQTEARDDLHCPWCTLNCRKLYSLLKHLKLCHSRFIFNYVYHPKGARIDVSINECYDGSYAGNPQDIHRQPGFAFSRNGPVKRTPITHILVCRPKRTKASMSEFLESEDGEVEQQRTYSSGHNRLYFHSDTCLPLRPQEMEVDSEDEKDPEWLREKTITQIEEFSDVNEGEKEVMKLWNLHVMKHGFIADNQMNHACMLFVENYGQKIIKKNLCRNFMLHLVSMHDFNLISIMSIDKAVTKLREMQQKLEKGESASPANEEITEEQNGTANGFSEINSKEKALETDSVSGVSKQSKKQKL
EZH2, sequence (Q09028 whole entry partner): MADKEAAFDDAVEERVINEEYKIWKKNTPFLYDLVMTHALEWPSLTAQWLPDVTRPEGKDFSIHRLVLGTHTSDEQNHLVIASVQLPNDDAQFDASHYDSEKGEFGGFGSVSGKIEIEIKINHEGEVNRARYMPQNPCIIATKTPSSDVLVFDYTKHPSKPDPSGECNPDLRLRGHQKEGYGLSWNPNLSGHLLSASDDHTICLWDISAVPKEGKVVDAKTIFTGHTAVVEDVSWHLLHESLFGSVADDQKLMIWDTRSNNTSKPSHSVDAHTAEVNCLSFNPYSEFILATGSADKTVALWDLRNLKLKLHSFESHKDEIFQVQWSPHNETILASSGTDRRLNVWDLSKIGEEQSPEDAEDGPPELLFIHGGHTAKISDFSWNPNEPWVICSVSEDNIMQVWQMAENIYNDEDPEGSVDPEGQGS

SMILES: Cc1cc(C)c(CNC(=O)c2cc(C3CC3)cc3c2cnn3C(C)C)c(=O)[nH]1 [Compound 2]
- Ki (EZH2): 74 ± 11 nM
- IC50 (H3K27me3): 2510 nM

SMILES: CCN(c1cc(-c2ccc(CN3CCOCC3)cc2)cc(C(=O)NCc2c(C)cc(C)[nH]c2=O)c1C)C1CCOCC1 [EPZ-6438, N-((4,6-dimethyl-2-oxo-1,2-dihydropyridin-3-yl)methyl)-5-(ethyl(tetrahydro-2H-pyran-4-yl)amino)-4-methyl-4′-(morpholinomethyl)-[1,1′-biphenyl]-3-carboxamide]
- histone H3K27me3 (H3K27 trimethylation) in EVSAT DTPs treated with GDC-0908 (H3K27me3 in EVSAT DTPs): effective in reducing H3K27 trimethylation; also recorded: inhibited
- histone H3K27me3 (H3K27 trimethylation) in PC9 DTPs treated with erlotinib (H3K27me3 in PC9 DTPs): effective in reducing H3K27 trimethylation; also recorded: inhibited

SMILES: Cc1cc(C)c(CNC(=O)c2cc(-c3ccnc(N4CCN(C)CC4)c3)cc3c2cnn3C(C)C)c(=O)[nH]1 [Compound 5]
- Ki (EZH2): 14 ± 5 nM
- IC50 (H3K27me3): 2000 nM

SMILES: CC(=O)Nc1ccc(C(=O)Nc2cc(-c3cccs3)ccc2N)cc1 [Compound G946]
- cell growth of PC9 DTP with erlotinib (PC9 DTP [1]): effective in reducing cell growth

SMILES: CCCc1cc(C)[nH]c(=O)c1CNC(=O)c1cc(-c2ccnc(N3CCN(C)CC3)c2)cc2c1cnn2C(C)C [Compound 6]
- IC50 (H3K27me3): 174 ± 84 nM

SMILES: CCCc1cc(C)[nH]c(=O)c1CNC(=O)c1cc(-c2ccc(N3CCN(C)CC3)nc2)cc2c1cnn2C(C)C [Compound 4]
- Ki (EZH2): 0.6 ± 0.05 nM
- IC50 (H3K27me3): 79 ± 7 nM

SMILES: CC[C@H](C)n1cc(C)c2c(C(=O)NCc3c(C)cc(C)[nH]c3=O)cc(-c3ccc(N4CCNCC4)nc3)cc21 [GSK126, (S)-1-(sec-butyl)-N-((4,6-dimethyl-2-oxo-1,2-dihydropyridin-3-yl)methyl)-3-methyl-6-(6-(piperazin-1-yl)pyridin-3-yl)-1H-indole-4-carboxamide]
- cell growth of PC9 DTP with erlotinib (PC9 DTP [2]): effective in reducing cell growth in a dose dependent manner
- histone H3K27me3 (H3K27 trimethylation) in EVSAT DTPs treated with GDC-0908 (H3K27me3 in EVSAT DTPs): effective in reducing H3K27 trimethylation; also recorded: inhibited
- cell growth of EVSAT DTP with PI3 kinase inhibitor (EVSAT DTP): effective in reducing cell growth in a dose dependent manner
- histone H3K27me3 (H3K27 trimethylation) in PC9 DTPs treated with erlotinib (H3K27me3 in PC9 DTPs): effective in reducing H3K27 trimethylation; also recorded: inhibited

SMILES: Nc1nccc2c1ncn2[C@@H]1C=C(CO)[C@@H](O)[C@H]1O [DZNep, 3-deazaneplanocin A]
- cell killing compared to erlotinib alone (PC9 cells; DZNep 0.625 uM with 1 μM erlotinib): 75.8%
- cell killing compared to erlotinib alone (PC9 cells; DZNep 5 uM with 1 μM erlotinib): 87.5%
- effect by itself on PC9 DTP cell viability (PC9 cells; DZNep 0.625 and 5 uM, without erlotinib): not effect
- cell viability in media alone (PC9 cells; DZNep 0.625 to 10 uM, media alone): minimum impact
- PC9 DTP cell viability in combination with erlotinib (PC9 cells; DZNep concentrations as low as 0.625 uM, 1 μM erlotinib): very significantly decrease
- EZH2 levels and trimethylation of lysine 27 on histone H3 [3]: deplete EZH2 levels and to inhibit trimethylation of lysine 27 on histone H3

SMILES: CC(/C=C/C(=O)NO)=C\[C@@H](C)C(=O)c1ccc(N(C)C)cc1 [TSA, Trichostatin A]
- effect on radiotherapy drug tolerant cells (SKBR3 cells): significant effect and eliminated radiotherapy drug tolerant cells
- tumor growth, TSA alone (PC9 xenografts; TSA 0.5 mg/kg): no effect
- tumor relapse, combination of erlotinib+TSA (PC9 xenografts; TSA 0.5 mg/kg with erlotinib 50 then 35 mg/kg PO): substantial delay in tumor relapse

SMILES: Cc1ccc(C(=O)NCCCCCC(=O)Nc2ccc(F)cc2N)cc1 [Compound G877]
- cell growth of PC9 DTP with erlotinib (PC9 DTP [1]): effective in reducing cell growth
